Results as given in the NIST ThermoML archive (doi:10.1021/je049671t).

Assay: xn = mol fraction of the nth substance listed
Settings: Liquid, Vibrating tube method

CCCC [butane] + CCC
Settings	mass density [kg/m3]
239.04 K, 463.7 kPa, x2 = 0.25	622.82
239.04 K, 943.7 kPa, x2 = 0.25	623.31
239.04 K, 1507.7 kPa, x2 = 0.25	623.9
239.04 K, 1962.4 kPa, x2 = 0.25	624.35
239.04 K, 2486.4 kPa, x2 = 0.25	624.89
239.04 K, 3058.3 kPa, x2 = 0.25	625.46
239.04 K, 3473.7 kPa, x2 = 0.25	625.88
239.04 K, 3994 kPa, x2 = 0.25	626.39
239.04 K, 4514.6 kPa, x2 = 0.25	626.9
239.04 K, 4950 kPa, x2 = 0.25	627.33
239.04 K, 5524.3 kPa, x2 = 0.25	627.9
239.04 K, 6029.4 kPa, x2 = 0.25	628.39
239.04 K, 6518 kPa, x2 = 0.25	628.86
239.04 K, 6930.6 kPa, x2 = 0.25	629.26
240 K, 478.5 kPa, x2 = 0.5	606.78
240 K, 514.9 kPa, x2 = 0.75	589.83
240 K, 996.7 kPa, x2 = 0.5	607.38
240 K, 1006.3 kPa, x2 = 0.75	590.44
240 K, 1479 kPa, x2 = 0.5	607.88
240 K, 1505.4 kPa, x2 = 0.75	591.03
240 K, 1962.4 kPa, x2 = 0.5	608.42
240 K, 2024.2 kPa, x2 = 0.75	591.63
240 K, 2491.6 kPa, x2 = 0.5	609
240 K, 2519.5 kPa, x2 = 0.75	592.21
240 K, 2956 kPa, x2 = 0.5	609.51
240 K, 3022.7 kPa, x2 = 0.75	592.8
240 K, 3501.4 kPa, x2 = 0.5	610.09
240 K, 3519.4 kPa, x2 = 0.75	593.39
240 K, 3952.5 kPa, x2 = 0.5	610.58
240 K, 4031.2 kPa, x2 = 0.75	593.97
240 K, 4493.1 kPa, x2 = 0.5	611.14
240 K, 4526.8 kPa, x2 = 0.75	594.51
240 K, 4946.9 kPa, x2 = 0.75	594.99
240 K, 4972.1 kPa, x2 = 0.5	611.66
240 K, 5472.1 kPa, x2 = 0.5	612.19
240 K, 5521.6 kPa, x2 = 0.75	595.64
240 K, 6000.1 kPa, x2 = 0.5	612.74
240 K, 6044.8 kPa, x2 = 0.75	596.2
240 K, 6502.7 kPa, x2 = 0.5	613.25
240 K, 6539.6 kPa, x2 = 0.75	596.77
240 K, 6973.1 kPa, x2 = 0.5	613.74
240 K, 7045.6 kPa, x2 = 0.75	597.3
260 K, 489.6 kPa, x2 = 0.75	566.44
260 K, 495.8 kPa, x2 = 0.5	585.02
260 K, 524.1 kPa, x2 = 0.25	600.69
260 K, 996.9 kPa, x2 = 0.75	567.21
260 K, 1001.1 kPa, x2 = 0.5	585.74
260 K, 1004.9 kPa, x2 = 0.25	601.3
260 K, 1482.5 kPa, x2 = 0.25	601.91
260 K, 1504.2 kPa, x2 = 0.75	567.97
260 K, 1506.4 kPa, x2 = 0.5	586.42
260 K, 1989.9 kPa, x2 = 0.25	602.54
260 K, 2003.6 kPa, x2 = 0.75	568.71
260 K, 2004.6 kPa, x2 = 0.5	587.1
260 K, 2508.4 kPa, x2 = 0.75	569.45
260 K, 2517.2 kPa, x2 = 0.5	587.78
260 K, 2521.3 kPa, x2 = 0.25	603.2
260 K, 3004 kPa, x2 = 0.25	603.79
260 K, 3014.9 kPa, x2 = 0.5	588.45
260 K, 3015.6 kPa, x2 = 0.75	570.19
260 K, 3449.6 kPa, x2 = 0.25	604.34
260 K, 3495.5 kPa, x2 = 0.75	570.88
260 K, 3506 kPa, x2 = 0.5	589.1
260 K, 4004.5 kPa, x2 = 0.5	589.73
260 K, 4006.2 kPa, x2 = 0.75	571.62
260 K, 4007 kPa, x2 = 0.25	605.01
260 K, 4494.5 kPa, x2 = 0.75	572.27
260 K, 4511.7 kPa, x2 = 0.25	605.63
260 K, 4525.9 kPa, x2 = 0.5	590.39
260 K, 5017.4 kPa, x2 = 0.5	591.03
260 K, 5017.7 kPa, x2 = 0.25	606.24
260 K, 5022.8 kPa, x2 = 0.75	573.01
260 K, 5508.1 kPa, x2 = 0.75	573.69
260 K, 5512.4 kPa, x2 = 0.25	606.82
260 K, 5513.7 kPa, x2 = 0.5	591.66
260 K, 6015.4 kPa, x2 = 0.5	592.29
260 K, 6034.1 kPa, x2 = 0.25	607.43
260 K, 6049.2 kPa, x2 = 0.75	574.41
260 K, 6498.8 kPa, x2 = 0.75	575.04
260 K, 6503.8 kPa, x2 = 0.25	607.98
260 K, 6512.1 kPa, x2 = 0.5	592.9
260 K, 6943 kPa, x2 = 0.75	575.6
260 K, 6986.6 kPa, x2 = 0.5	593.49
260 K, 7011.2 kPa, x2 = 0.25	608.56
280 K, 524.1 kPa, x2 = 0.25	578.3
280 K, 533.2 kPa, x2 = 0.5	561.24
280 K, 994.1 kPa, x2 = 0.25	579.05
280 K, 996.1 kPa, x2 = 0.5	562.05
280 K, 1496.7 kPa, x2 = 0.25	579.83
280 K, 1503.2 kPa, x2 = 0.5	562.93
280 K, 1506.3 kPa, x2 = 0.75	543.19
280 K, 2004.1 kPa, x2 = 0.5	563.79
280 K, 2012.9 kPa, x2 = 0.75	544.18
280 K, 2015.5 kPa, x2 = 0.25	580.63
280 K, 2501.9 kPa, x2 = 0.5	564.62
280 K, 2503.9 kPa, x2 = 0.25	581.38
280 K, 2509.6 kPa, x2 = 0.75	545.11
280 K, 3000.3 kPa, x2 = 0.25	582.13
280 K, 3006.4 kPa, x2 = 0.5	565.46
280 K, 3018.4 kPa, x2 = 0.75	546.06
280 K, 3502.3 kPa, x2 = 0.25	582.88
280 K, 3504.2 kPa, x2 = 0.5	566.28
280 K, 3513.7 kPa, x2 = 0.75	546.96
280 K, 4015 kPa, x2 = 0.25	583.63
280 K, 4015 kPa, x2 = 0.75	547.86
280 K, 4016.7 kPa, x2 = 0.5	567.11
280 K, 4505.3 kPa, x2 = 0.25	584.35
280 K, 4508.2 kPa, x2 = 0.75	548.75
280 K, 4524.6 kPa, x2 = 0.5	567.93
280 K, 4984.9 kPa, x2 = 0.75	549.59
280 K, 4998.7 kPa, x2 = 0.5	568.69
280 K, 5019.7 kPa, x2 = 0.25	585.09
280 K, 5502.7 kPa, x2 = 0.25	585.78
280 K, 5506.3 kPa, x2 = 0.5	569.47
280 K, 5508.8 kPa, x2 = 0.75	550.5
280 K, 6005.9 kPa, x2 = 0.25	586.49
280 K, 6009.4 kPa, x2 = 0.5	570.25
280 K, 6043.7 kPa, x2 = 0.75	551.39
280 K, 6507.4 kPa, x2 = 0.5	571.01
280 K, 6517.1 kPa, x2 = 0.25	587.21
280 K, 6530.4 kPa, x2 = 0.75	552.22
280 K, 6972.3 kPa, x2 = 0.5	571.72
280 K, 7009.3 kPa, x2 = 0.25	587.89
280 K, 7012.2 kPa, x2 = 0.75	553.04
300 K, 990 kPa, x2 = 0.5	536.26
300 K, 1002.3 kPa, x2 = 0.75	514.75
300 K, 1005.5 kPa, x2 = 0.25	555.26
300 K, 1504.4 kPa, x2 = 0.25	556.28
300 K, 1504.7 kPa, x2 = 0.75	516.09
300 K, 1541.4 kPa, x2 = 0.5	537.52
300 K, 1950.9 kPa, x2 = 0.5	538.44
300 K, 1972.1 kPa, x2 = 0.75	517.33
300 K, 2002.5 kPa, x2 = 0.25	557.25
300 K, 2461.4 kPa, x2 = 0.5	539.56
300 K, 2497.9 kPa, x2 = 0.25	558.21
300 K, 2507.7 kPa, x2 = 0.75	518.69
300 K, 2946.2 kPa, x2 = 0.5	540.6
300 K, 3009.2 kPa, x2 = 0.75	519.95
300 K, 3012.5 kPa, x2 = 0.25	559.2
300 K, 3505.6 kPa, x2 = 0.5	541.79
300 K, 3507.9 kPa, x2 = 0.25	560.13
300 K, 3511.5 kPa, x2 = 0.75	521.18
300 K, 3998.7 kPa, x2 = 0.25	561.02
300 K, 4015.9 kPa, x2 = 0.5	542.85
300 K, 4017.5 kPa, x2 = 0.75	522.39
300 K, 4511.3 kPa, x2 = 0.25	561.97

mass density [kg/m3]
Settings	240 K	260 K	280 K
x2 = 0.25	–	600.21	577.86
x2 = 0.5	606.37	584.58	560.91
x2 = 0.75	589.36	566.05	541.14
